Experimental data from patent US10813919B2, “Use of histone deacetylase inhibitors for enhancing immunotherapies” (Indiana University Research and Technology Corporation, priority 2016, dated 2020).

How the values were obtained:
[1] = test system: advanced renal cell carcinoma; settings: advanced renal cell carcinoma patients, cited from earlier work
iNOS = experiment: Fold change of iNOS in J774M cells; assay type: cell-based; settings: J774M cells treated with entinostat
chemokines and cytokines = experiment: Proteome Profiler Mouse XL Cytokine array (Ary028) of tumor lysates and serum; assay type: in vivo
Experimental: Proteome Profile: Tumor tissue was homogenized in PBS containing protease inhibitors. Following homogenization, Triton X-100 was added to a final concentration of 1%, frozen at −80° C., thawed, centrifuged as 10,000 g for 5 minutes, quantified and assayed according to the manufacturer's protocol. Blood samples were collected from mice in each cohort, allowed to clot for 2 hours at room temperature, centrifuged at 2000 g for 15 minutes. Serum samples were frozen at −80° C. until time of analysis at which time they were run according to manufacturer's protocol. All samples were processed and run on R&D Systems mouse XL cytokine array kit (Ary028).

[2] = test system: Myeloid derived suppressor cells (G-MDSCs, M-MDSCs); experiment: FACS analysis of G-MDSC and M-MDSC in tumor and blood; assay type: in vivo, Balb/c mice
Experimental: (§1) Tumor suspension and spleenocyte preparation: Live tumor sections were isolated from tumors, cut into small pieces, and digested with an enzyme cocktail solution from the mouse tumor dissociation kit (Miltenyi Biotec—130-096-730). Tumors were incubated with the enzyme cocktail for 30 minutes at 37° C. with agitation. The enzyme reaction was arrested using PBS, cells were spun at 300 g, 4° C. for 7 minutes, re-suspended in PBS and mashed through a 70 um cell strainer. Cells from these tumors were either used for flow cytometry analysis or further processed and used for functional analyses.
(§2) Cell staining and flow cytometry: Splenocytes, tumor cell suspensions, and peripheral blood cells were washed, blocked with Fc Block (anti-mouse CD16/32 mAb; BD Biosciences) at 4° C. for 15 minutes, and stained with fluorescence conjugated antibodies against surface markers: CD45 (clone 30-F11), CD11b (clone M1/70), Gr1 (clone RB6-8C5), Ly6C (clone AL-21), Ly6G (clone 1A8), F480 (clone BM8), CD8a (clone 53-6.7), CD4 (clone RM4-5) antibodies purchased from BioLegend, eBioscience or BD Biosciences. Cells were then fixed in Fixation/Permeabilization buffer (eBioscience) and stained with antibodies against intracellular proteins, including FoxP3 (NRRF-30) and Granzyme B (clone GB11). The antibodies were purchased from BD Biosciences, Biolegend, and R&D Systems and used in staining. Stained cells and isotype-control-stained cells, were assayed on a LSR4 or Fortessa flow cytometer (BD Biosciences). Data analysis was performed using the FlowJo (FlowJo LLC) and/or ModFit LT 4.1 software.

[3] = test system: G-MDSCs or M-MDSCs isolated from RENCA tumors; experiment: T cell suppression assay, ex vivo, MDSCs isolated from RENCA tumors of treated mice; assay type: cell-based, mouse
Experimental: T cell isolation & activation: Whole spleens were harvested from naïve mice, mashed and passed through a 70 μm strainer. Cells were then washed, lysed with RBC lysis buffer (Affymetrix 00-4333-57), and cultured in RPMI medium with 10% FBS, Pen (100 units/ml)-Strep ([…]), 1 mM sodium pyruvate, […] non-essential amino-acids, 2 mM L-Glutamine, 55 μM BME, with anti-CD3 (eBioscience 16-0031-85) and anti-CD28 (eBioscience 5012503) for approximately 24 hours. CD8^+ T cells were then isolated using a CD8a^+ T cell isolation kit from Miltenyi Biotec (130-104-075), stained with CFSE (NC9759757), according to the manufacturer's protocol, and co-cultured with MDSCs as described below. MDSC Isolation: MDSCs were isolated from RENCA tumors of each group using Miltenyi Biotec's Myeloid Derived Suppressor Cell Isolation Kit (130-094-538) and co-cultured with isolated CD8^+ T cells in serially diluted concentrations. T cell suppression assay: T cells (1×10^5; isolated with a CD8a^+ T cell isolation kit; Miltenyi Biotec) were cultured in plates with varying numbers of either G-MDSCs or M-MDSCs isolated from RENCA tumors for 16-18 hours. T cells isolated in the listed method were co-cultured with entinostat treated J774M cells for 68-72 hours. Cells were then harvested, stained and analyzed via FACS analysis. Cell staining and flow cytometry: Splenocytes, tumor cell suspensions, and peripheral blood cells were washed, blocked with Fc Block (anti-mouse CD16/32 mAb; BD Biosciences) at 4° C. for 15 minutes, and stained with fluorescence conjugated antibodies against surface markers: CD45 (clone 30-F11), CD11b (clone M1/70), Gr1 (clone RB6-8C5), Ly6C (clone AL-21), Ly6G (clone 1A8), F480 (clone BM8), CD8a (clone 53-6.7), CD4 (clone RM4-5) antibodies purchased from BioLegend, eBioscience or BD Biosciences. Cells were then fixed in Fixation/Permeabilization buffer (eBioscience) and stained with antibodies against intracellular proteins, including FoxP3 (NRRF-30) and Granzyme B (clone GB11). The antibodies were purchased from BD Biosciences, Biolegend, and R&D Systems and used in staining. […]

[4] = test system: RENCA-Luc murine renal cell carcinoma; experiment: In vivo tumor growth (RENCA), orthotopic RENCA-Luc syngeneic model; set-up: species or system Balb/c mice; settings: vs control; entinostat 5 mg/kg oral 5 days/week, anti-PD-1 10 mg/kg I.P.; end-point tumor weight
Experimental: Cell lines: The RENCA-Luc murine renal cell carcinoma cell line, purchased from American Type Culture Collection (National Cancer Institute), was stably transfected with a luciferase reporter in the Pili laboratory. Cells were cultured using RPMI 1640 (Corning) with 10% fetal bovine serum (Corning) and 1% Pen/Strep (Life Technologies). Cells were incubated in an incubator maintained at 37° C. and 5% CO2. 75-80% confluent cells were harvested for orthotopic injection into the kidney of Balb/c mice using 0.25% Trypsin (Corning) and suspended in a 1:1 ratio of MATRIGEL® (Corning) and DPBS (Gibco).
In vivo tumor growth (RENCA): All procedures were performed and approved in strict accordance with the Institutional Animal Care and Use Committee (IACUC) at Roswell Park Cancer Institute, Indiana University School of Medicine, and with the NIH Guide for the Care and Use of Laboratory Animal guidelines.
Female five- to six-week old Balb/c mice (Charles Rivers) were maintained in a temperature controlled room with a 12/12 hour light/dark schedule and food provided ad libitum. 70-80% confluent RENCA-Luc cells were harvested using 0.25% Trypsin (Corning) and suspended in a 1:1 ratio of matrigel (Corning) and HBSS (Gibco), 10 μl containing 1×10^4 cells was injected under the renal capsule. […]

[5] = test system: MDSC-like cell line J774M; experiment: T cell suppression assay with entinostat treated J774M cells; assay type: cell-based; settings: J774M treated 24 hours in vitro, co-culture with pre-activated CD8+ T cells 68-72 hours
Experimental: The J774M cell line was cultured with DMEM (Corning) media with 10% fetal bovine serum (Corning) and 1% Pen/Strep (Life Technologies). Cells were incubated in 37° C. and 5% CO2. […] T cell isolation & activation: Whole spleens were harvested from naïve mice, mashed and passed through a 70 μm strainer. Cells were then washed, lysed with RBC lysis buffer (Affymetrix 00-4333-57), and cultured in RPMI medium with 10% FBS, Pen (100 units/ml)-Strep ([…]), 1 mM sodium pyruvate, […] non-essential amino-acids, 2 mM L-Glutamine, 55 μM BME, with anti-CD3 (eBioscience 16-0031-85) and anti-CD28 (eBioscience 5012503) for approximately 24 hours. CD8^+ T cells were then isolated using a CD8a^+ T cell isolation kit from Miltenyi Biotec (130-104-075), stained with CFSE (NC9759757), according to the manufacturer's protocol, and co-cultured with MDSCs as described below. T cell suppression assay: T cells (1×10^5; isolated with a CD8a^+ T cell isolation kit; Miltenyi Biotec) were cultured in plates with varying numbers of either G-MDSCs or M-MDSCs isolated from RENCA tumors for 16-18 hours. T cells isolated in the listed method were co-cultured with entinostat treated J774M cells for 68-72 hours. Cells were then harvested, stained and analyzed via FACS analysis.

J774M cells = experiment: J774M cell proliferation or viability; assay type: cell-based; settings: 0.01-5 μM, up to 48 hours
Experimental: The J774M cell line was cultured with DMEM (Corning) media with 10% fetal bovine serum (Corning) and 1% Pen/Strep (Life Technologies). Cells were incubated in 37° C. and 5% CO2.

[6] = test system: T regulatory cells (CD4+FoxP3+); experiment: FACS analysis of T regulatory cells in end-point blood and tumor samples; assay type: in vivo, Balb/c mice; settings: blood
Experimental: as §1
as §2, with “Stained cells and isotype-control-stained cells, were assayed on a LSR4 or Fortessa flow cytometer (BD Biosciences). Data analysis was performed using the FlowJo (FlowJo LLC) and/or ModFit LT 4.1 software.” left out

arginase-1 (Arg1) = experiment: Quantitative real-time PCR of Arginase 1 in J774M cells; assay type: cell-based; settings: 0.5 μM, 1 μM, 2 μM vs untreated control (p=0.003; 0.0041; 0.0043)
Experimental: Quantitative real-time PCR: mRNA was extracted from J774M cells that were treated±entinostat using standard Trizol protocols. RNA concentration and purity were determined through measurement of A260/280 ratios with a Synergy Hi Multi-Mode reader. cDNA was prepared using the iScript kit (Bio-Rad) and qPCR was performed using an Applied Biosystems 7900HT fast real time PCR system. Sequence Detection Systems software v2.3 was used to identify the cycle threshold (Ct) values and to generate gene expression curves. Data were normalized to Gapdh expression and fold change was calculated. The primers used for target genes were: Gapdh_foward 5′-[…]-3′, Gapdh_reverse 5′-[…]-3′ (SEQ ID NO:1), Arginase 1_forward 5′-[…]-3′ (SEQ ID NO:2), and Arginase 1_reverse 5′-[…]-3′ (SEQ ID NO:3).

Q: What does the source list for “nivolumab: a PD-1 inhibitor, immune checkpoint inhibitor approved for advanced renal cell carcinoma”?
A: treatment related adverse events [1]: limited treatment related adverse events; increase in overall survival ([1]; compared to standard of care, everolimus): 78%

Q: What does the source list for `Nc1ccccc1NC(=O)c1ccc(CNC(=O)OCc2cccnc2)cc1` [entinostat, Pyridin-3-ylmethyl N-[[4-[(2-aminophenyl)carbamoyl]phenyl]methyl]carbamate]?
A: iNOS fold change (iNOS): inconclusive results; circulating pro-tumor associated chemokines and cytokines (chemokines and cytokines; serum vs control, adiponectin, angiopoietin-2, chitinase 3-like 1, CCL12, C5, c-reactive protein, IL-6, pentraxins 2/3, periostin, CCL17, M-CSF, GM-CSF, MMP-2, MMP-9, CCL2, osteoprotegerin, VCAM): Significant decreases; MDSC associated trafficking/accumulation and expansion/activation cytokines in the TME (chemokines and cytokines; tumor lysates vs control, CCL2, VCAM-1/CD106, Angiopoietin-2, G-CSF, GM-CSF, IL-1β, IL-10): significant reduction; anti-tumor chemokines and cytokines in the TME (chemokines and cytokines; tumor lysates vs control, CXCL10/IP-10, E-selectin, IL-1ra, IL-4, IL-12p40): significant upregulation; upregulation of anti-tumor cytokines/chemokines (chemokines and cytokines; vs control cohort, CXCL9, CXCL10, IL-4, IL-13, E-selectin, IL-12p40): note observed; tumor infiltrating G-MDSC population ([2]; TME, vs control): slight increase; tumor infiltrating M-MDSC population ([2]; TME, vs control): slight increase; circulating G-MDSCs ([2]; blood): slight decreases; circulating M-MDSCs ([2]; blood): significant increases; capacity of MDSCs (G-MDSC or M-MDSC) to inhibit CD8+ T cell proliferation ([3]; MDSC to T cell ratios 1:1, 0.5:1, 0.25:1, co-culture 16-18 hours, mice treated in vivo, p≤0.01): significant reduction; CD8+ T cell proliferation in co-culture with MDSCs from treated mice ([3]; co-culture 16-18 hours, similar to control stimulated CD8+ T cells alone): ~90%; increase in Granzyme B production by CD8+ T cells ([3]; compared to co-culture with MDSCs from untreated tumor-bearing mouse, p<0.01): approximately 40%; tumor growth inhibition [4]: 52.6%; CD8+ T cell proliferation in co-culture with treated J774M cells [5]: significant increase; J774M cell proliferation or viability (J774M cells): no significant alteration; FoxP3 protein levels (MFI) in circulating CD4+FoxP3+ cells [6]: significant decrease; arginase-1 (Arg1) expression (arginase-1 (Arg1)): significant inhibition
